PMC11093748, “De novo identification of CD4^+ T cell epitopes” (Nature Methods, 2024)

Assays:
Jurkat cells, No TCR = assay: Single SABR-II co-incubation, background without TCR; type: cell-based, human; conditions: No TCR
Source text: (§1) We performed systematic screening of the cloned TCRs against the I-Ag7 SABR-II library. Several TCRs along with a positive control (such as BDC2.5 or 4-8Ins) were screened individually against the library for each sort (Extended Data Fig. 6a and Supplementary Table 4). High- and low-confidence ES zones for each screened TCR were defined by the ES values of the control TCR’s cognate epitopes. For all putative cognate epitopes, single SABR-IIs were constructed, expressed in NFAT–GFP Jurkat cells and used for co-incubation with the corresponding TCRs. Co-incubation assays that yielded a GFP signal higher than that obtained in assays with no TCR were determined to be positive and the epitopes deemed true cognate ligands (Extended Data Fig. 6b,c). Using this strategy, we obtained epitopes in the high-confidence zone for eight TCRs (Fig. 3a and Extended Data Fig. 6b,d). Among numerous altered peptide ligands (APLs), these TCRs recognized the physiological InsC-ChgA HIP ([…] and analogs, recognized by TCR5, TCR6B, TCR9 and TCR34), InsC-Iapp HIP ([…] and analogs, recognized by TCR4 and TCR15) and InsB9:23 ([…] and analogs recognized by TCR24 and TCR37). These cognate high-confidence hits were validated using single SABR-II co-incubation assays (Fig. 3b and Extended Data Fig. 7a). Further validations using in vitro mouse interleukin-2 (mIL-2) secretion by TCR-expressing 5KC reporter cells[13] or CD25 expression by TCR-expressing splenic CD4^+ T cells upon stimulation with the cognate epitope were performed (Extended Data Fig. 7b,c). Furthermore, low-confidence hits were called for ten TCRs and tested in co-incubation assays.
(§2) For SABR library screens, 3 × 10^6 NFAT–GFP Jurkat cells expressing the SABR library were labeled with CellTrace Violet (BioLegend) according to the manufacturer’s protocol before incubation with 3 × 10^6 Jurkat cells expressing the TCR of interest. These mixtures were incubated in a six-well plate for 16–20 h. Cells were stained with anti-CD69-APC-Cy7 where indicated (BioLegend) and the top 1–2% of GFP^+CD69^+ cells were sorted for genomic DNA extraction, indexing and sequencing (see below). Multiplexed assays were scaled on a per-TCR basis (for example 3 × 10^6 for each of three TCRs against 9 × 10^6 library cells). For single SABR assays, unless otherwise defined, 5 × 10^5 SABR expressing NFAT–GFP Jurkat cells (or 5KC cells) were labeled with CellTrace Violet (BioLegend) according to the manufacturer’s protocol before incubation with 5 × 10^5 TCR-expressing Jurkat cells (or 5KC cells) in a round-bottom 96-well plate for 16–20 h. Cells were stained with anti-CD69-APC-Cy7 when indicated and acquired on the Attune NxT flow cytometer (Thermo Fisher Scientific). All flow analysis was performed using FlowJo (BD). For Daudi cell co-culture, 1 × 10^6 Jurkat cells expressing the TCR of interest were incubated with 1 × 10^6 Daudi cells expressing a SABR of interest for 3 days. On day 3, cells were labeled with anti-RT1B-PE and anti-Fas-APC-Cy7 before being acquired on the Attune NxT flow cytometer.

TCR3 = assay: Single SABR-II co-incubation, NFAT-GFP Jurkat; type: cell-based, mouse; conditions: TCR 3, Fig 5C
Source text: Given the predominance of HIP-reactive TCRs, we hypothesized that there may be other TCRs that respond to HIPs that were not encoded in our initial library configuration. While the initial I-Ag7 SABR-II library consisted of a number of HIPs, HIP formation is thought to be more widespread in pancreatic β-cells[52],[70]. Therefore, we sought to construct a defined, HIP-focused library to probe whether there were any undiscovered HIP-reactive TCRs that could be recognized by the clonally expanded TCR in our dataset. To test this, we utilized a published proteomic dataset, which predicted that several proteins that were highly expressed in secretory granules of β-cells may contribute to HIP formation. Using their predictions, we built a theoretical HIP library, in which all possible ‘left’ halves of the insulin C chain derived from natural cleavage products were fused to ‘right’ halves derived from secretory granule proteins (Fig. 5a). This 2,561-epitope library (12–25 amino acids per epitope) consisted of only HIPs and a small number of positive control epitopes (Supplementary Table 5). We screened the top three clonally expanded TCRs (TCR1, TCR2 and TCR3) against this library, as these TCRs had not been de-convoluted using the original library. […] To confirm that the HIP itself was important for the cognate interaction, we cloned single 14-mer epitopes into SABR-IIs consisting of seven amino acids of the left portion of the HIP and seven amino acids of the right portion of the HIP. In this way, no nine amino acids from either peptide sequence alone could occupy the binding pocket of I-Ag7, ensuring that TCR reactivity spanned the HIP junction. […] Of note, in all the epitopes that were tested, the ‘left’ half derived from insulin C was conserved, whereas the ‘right’ halves were derived from several other proteins (Fig. 5d). […] Moreover, the promiscuous binding of TCR3 to HIPs corroborates evidence from other NOD mouse-derived TCRs reacting to multiple HIPs[72].
as §2

TCR4 = assay: Single SABR-II co-incubation, NFAT-GFP Jurkat; type: cell-based, mouse; conditions: TCR 4, Fig 5C
Source text: as §1, §2

TCR5 = assay: Single SABR-II co-incubation, NFAT-GFP Jurkat; type: cell-based, mouse; conditions: TCR 5, Ext. Data Fig. 6C, 18-20 hr
Source text: as §1, §2

BDC2.5 TCR = assay: I-Ag7 SABR-II library screen, enrichment score; type: cell-based, mouse; conditions: I-Ag7 library
Source text: We then asked whether SABR-IIs could be used to present a library of epitopes for CD4^+ T cell antigen discovery. To that end, we constructed a SABR-II library to present epitopes derived from pancreatic islets in I-Ag7 by curating a list of 4,075 published epitopes from the Immune Epitope Database (iedb.org)[50] and a study by Wan et al.[51] (Supplementary Table 1). Of note, this defined library consisted of unmodified epitopes from endogenous proteins, synthetic mimotopes, deamidated epitopes and hybrid insulin peptides (HIPs) that arise from post-translational fusion and are not genetically encoded in vivo[52],[53]. The epitope library was inserted into the I-Ag7 SABR-II backbone through pooled oligonucleotide synthesis, amplification and ligation-free cloning (Extended Data Fig. 3a). The I-Ag7 SABR-II-library was then expressed in NFAT–GFP Jurkat cells. We confirmed that after sequencing, the library accounted for a mean of 708 reads per epitope (Extended Data Fig. 3b). As a proof of concept, we performed co-incubation assays with Jurkat cells expressing the BDC2.5 TCR and sorted the top 1–2% of GFP^+CD69^+ cells at a rate of ~20 min per replicate with three replicates per TCR. We extracted the genomic DNA from sorted cells, amplified the SABR portion of the integrated proviruses and subjected the amplicons to Illumina sequencing (Extended Data Fig. 3c,d). The 1–2% sort gate represents >50-fold enrichment of cognate epitopes with minimal loss of signal (Extended Data Fig. 3e–h). Sequence reads were aligned to the I-Ag7 SABR-II backbone and the corresponding epitopes were scored based on their read counts. For each TCR under investigation, an enrichment score (ES) was determined for all the epitopes in a library. In each experiment, three replicates of a sort with TCR-expressing Jurkat cells were performed and reads were counted post-sequencing. In addition, three replicates of the unsorted library were also sequenced. A linear regression model was built using the unsorted library counts and used to determine the expected abundance of each epitope in the library. The ES was calculated based on the difference between the measured and the expected abundance of each epitope on a per-TCR basis (Fig. 1e). Based on ES values, two quantitative thresholds were used to determine putative cognate epitopes of a given TCR. A high-confidence zone containing clear outliers with a high ES and a low-confidence zone containing weak outliers with a moderately high ES were determined (Fig. 1e). This two-tiered strategy was used to call putative hits from screens. All the top-scoring epitopes for the BDC2.5 TCR were known BDC2.5 ligands containing the WXRM(D/E) motif (Fig. 1f,g, enriched ligands in red), a well-characterized trait of the BDC2.5 TCR[43],[54]–[56]. Across several independent experiments there was limited variation in ES values for the same TCRs and several epitopes fell into high- or low-confidence zones consistently (Extended Data Fig. 4a). Using a different TCR that was isolated from NOD mice, 4-8Ins[57], which recognized the InsB9:23 epitope ([…]), we observed a similar pattern of ES for cognate epitopes (Extended Data Fig. 4b).
For SABR library screens, 3 × 10^6 NFAT–GFP Jurkat cells expressing the SABR library were labeled with CellTrace Violet (BioLegend) according to the manufacturer’s protocol before incubation with 3 × 10^6 Jurkat cells expressing the TCR of interest. These mixtures were incubated in a six-well plate for 16–20 h. Cells were stained with anti-CD69-APC-Cy7 where indicated (BioLegend) and the top 1–2% of GFP^+CD69^+ cells were sorted for genomic DNA extraction, indexing and sequencing (see below). Multiplexed assays were scaled on a per-TCR basis (for example 3 × 10^6 for each of three TCRs against 9 × 10^6 library cells). […]

[1] = Ext. Data Fig. 6C, 18-20 hr, technical replicate 1
[2] = Ext. Data Fig. 6C, 18-20 hr, technical replicate 2
[3] = EXPT1 of 8 biological experiments

Sequence	%GFP+CD69+ cells of SABR-NFAT-GFP-Jurkat cells (Jurkat cells, No TCR; Fig 5C, technical replicate 1) [%]	%GFP+CD69+ cells of SABR-NFAT-GFP-Jurkat cells (Jurkat cells, No TCR; Fig 5C, technical replicate 2) [%]	%GFP+CD69+ cells of SABR-NFAT-GFP-Jurkat cells (TCR3; technical replicate 1) [%]	%GFP+CD69+ cells of SABR-NFAT-GFP-Jurkat cells (TCR3; technical replicate 2) [%]	%GFP+CD69+ cells of SABR-NFAT-GFP-Jurkat cells (TCR4; technical replicate 1) [%]	%GFP+CD69+ cells of SABR-NFAT-GFP-Jurkat cells (TCR4; technical replicate 2) [%]	%GFP+CD69+ cells of SABR-NFAT-GFP-Jurkat cells (Jurkat cells, No TCR; [1]) [%]	%GFP+CD69+ cells of SABR-NFAT-GFP-Jurkat cells (Jurkat cells, No TCR; [2]) [%]	%GFP+CD69+ cells of SABR-NFAT-GFP-Jurkat cells (TCR5; technical replicate 1) [%]	%GFP+CD69+ cells of SABR-NFAT-GFP-Jurkat cells (TCR5; technical replicate 2) [%]	Enrichment score (BDC2.5 TCR; [3])	Enrichment score (BDC2.5 TCR; EXPT2 of 8)	Enrichment score (BDC2.5 TCR; EXPT3 of 8)	Enrichment score (BDC2.5 TCR; EXPT4 of 8)	Enrichment score (BDC2.5 TCR; EXPT5 of 8)	Enrichment score (BDC2.5 TCR; EXPT6 of 8)	Enrichment score (BDC2.5 TCR; EXPT7 of 8)	Enrichment score (BDC2.5 TCR; EXPT8 of 8)
QVEQLELNAARDPN [14-mer hybrid insulin peptide spanning the fusion junction, TCR3 hit]	2.19	2.2	66.4	66.1	2.09	2.09	–	–	–	–	–	–	–	–	–	–	–	–
RRAGDLQTLWSRMDARR	–	–	–	–	–	–	0.37	0.41	22.4	18.8	0.002517	0.001322	0.002797	0.002419	0.002428	0.002187	0.002605	0.002542
EKAHLAIWARMDAKK	–	–	–	–	–	–	0.84	1	79.9	77.9	–	–	–	–	–	–	–	–
EKAHVPIWARMDAKK	–	–	–	–	–	–	2.48	2.95	29.9	30.2	0.000866	0.000378	0.000722	0.00038	0.000744	0.001001	0.000451	0.000387
RLGLWSRMDQLAKELTAE	–	–	–	–	–	–	1.36	1.22	56.2	56	0.001771	0.001151	0.002655	0.001435	0.002428	0.00271	0.002468	0.002661
EKAHHPIWARMDAKK	–	–	–	–	–	–	0.55	0.54	34.4	35.1	0.000952	0.00052	0.00087	0.00058	0.001178	0.001392	0.000919	0.000731
SRLGLWSRMDQLAKELTAE	–	–	–	–	–	–	1.65	1.6	73.5	71.6	0.002042	0.001129	0.002688	0.002123	0.003298	0.002741	0.00232	0.003121
SRLGLWVRMEQLAKELTAE	–	–	–	–	–	–	1.58	1.53	21.9	19.4	0.001795	0.001184	0.002703	0.001978	0.002454	0.002768	0.002526	0.002128
